Source: US7408359B2, “Current measuring device having artificial lipid bilayer membrane” (Japan Science and Technology Agency, priority 2003, dated 2008)

What was measured:
[1] = target: T1, ryanodine receptor channel (Ca- channel) (Sus scrofa, UniProt A0A5G2R1W3); test: Single channel current measurement and fluorescence observation of ryanodine receptor channel in artificial lipid bilayer membrane; format: biochemical, swine; details: 1 to 10 nM Cy5-labeled ryanodine added from the upside of the membrane; 500 mM Na-methanesulfonic acid, 40 mM Hepes (pH 7.4), 0.01-0.1 μM Ca2+
T1 construct: a cell membrane vesicle sampled from a swine cardiac muscle; from tissue; host or cells: swine cardiac muscle membrane vesicles
Description: (§1) In the present Example, a current measuring device according to the present invention (FIG. 5) was used. […] In the bottom 9, a small hole 4 whose diameter was 0.15 mm was provided. A square glass plate whose thickness was 0.17 mm and each side was 18 mm was used as the bottom plate 6. Further, an agarose gel layer whose thickness was 100 nm was formed on the bottom plate 6 as the support layer 5 so as to be positioned in a face contacting the upper solution chamber 3. […] In measuring a current, a patch-clamp amplifier (CEZ-2400 produced by Nihon Kohden Corporation) was used, and the measured current was recorded on a DAT tape by using a DAT recorder. […]
Thereafter, solution obtained by dissolving phosphatidylcholine in decane so that its concentration was 20 mg/ml was applied to the small hole 4 provided in the bottom 9 of the upper solution chamber 3. […] At this time, the ryanodine receptor channel on the vesicle membrane was fluorescence-labeled with fluorescent dye Cy5 (product of Amensham Pharmacia) in advance, and then the cell membrane vesicle was fused with the artificial lipid bilayer membrane 2. The fluorescence labeling of the ryanodine receptor channel was carried out as follows: a corresponding specific monoclonal antibody was labeled with Cy5, and the thus labeled antibody was coupled with the ryanodine receptor channel. […]

[2] = target: T2, plain muscle Ca2+ dependency K+ channel (Bos taurus, UniProt Q28204); test: Single channel current measurement of plain muscle Ca2+ dependency K+ channel in artificial lipid bilayer membrane; format: biochemical, bovine; details: 100 mM KCl, 10 mM Hepes (pH 7.4)
T2 construct: inserting a K^+ channel on the vesicle membrane into the artificial lipid bilayer membrane 2; from tissue; host or cells: bovine tracheal smooth (plain) muscle membrane vesicles
T2 sequence (Q28204 whole entry): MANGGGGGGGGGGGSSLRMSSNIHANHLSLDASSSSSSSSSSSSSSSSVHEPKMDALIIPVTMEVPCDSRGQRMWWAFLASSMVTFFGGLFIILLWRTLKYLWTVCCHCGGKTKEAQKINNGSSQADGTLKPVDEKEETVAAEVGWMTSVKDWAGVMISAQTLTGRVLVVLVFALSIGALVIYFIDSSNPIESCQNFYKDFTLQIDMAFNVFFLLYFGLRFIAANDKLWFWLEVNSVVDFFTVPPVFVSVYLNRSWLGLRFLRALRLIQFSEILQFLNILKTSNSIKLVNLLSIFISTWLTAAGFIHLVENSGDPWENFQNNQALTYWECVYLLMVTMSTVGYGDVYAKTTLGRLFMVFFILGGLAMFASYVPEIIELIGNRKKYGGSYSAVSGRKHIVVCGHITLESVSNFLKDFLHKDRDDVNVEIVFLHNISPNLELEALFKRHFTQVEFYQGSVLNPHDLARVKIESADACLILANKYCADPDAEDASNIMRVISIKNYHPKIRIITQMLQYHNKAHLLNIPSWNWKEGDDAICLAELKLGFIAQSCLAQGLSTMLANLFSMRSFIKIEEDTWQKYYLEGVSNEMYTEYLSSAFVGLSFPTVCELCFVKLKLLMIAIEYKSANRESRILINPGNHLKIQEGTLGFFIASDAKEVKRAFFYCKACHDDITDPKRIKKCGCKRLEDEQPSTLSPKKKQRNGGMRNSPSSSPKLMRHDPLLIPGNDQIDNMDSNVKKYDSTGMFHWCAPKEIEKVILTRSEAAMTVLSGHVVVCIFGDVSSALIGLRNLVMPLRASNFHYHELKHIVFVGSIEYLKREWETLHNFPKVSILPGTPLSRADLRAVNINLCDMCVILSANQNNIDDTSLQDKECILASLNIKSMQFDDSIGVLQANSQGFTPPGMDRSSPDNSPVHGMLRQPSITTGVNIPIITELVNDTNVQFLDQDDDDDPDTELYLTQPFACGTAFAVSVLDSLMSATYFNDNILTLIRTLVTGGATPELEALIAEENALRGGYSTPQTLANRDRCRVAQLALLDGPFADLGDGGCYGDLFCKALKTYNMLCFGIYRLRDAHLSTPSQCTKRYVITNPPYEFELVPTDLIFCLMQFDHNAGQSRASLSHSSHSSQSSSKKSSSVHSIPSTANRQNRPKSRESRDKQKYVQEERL
T2 sequence (Q28067 whole entry partner): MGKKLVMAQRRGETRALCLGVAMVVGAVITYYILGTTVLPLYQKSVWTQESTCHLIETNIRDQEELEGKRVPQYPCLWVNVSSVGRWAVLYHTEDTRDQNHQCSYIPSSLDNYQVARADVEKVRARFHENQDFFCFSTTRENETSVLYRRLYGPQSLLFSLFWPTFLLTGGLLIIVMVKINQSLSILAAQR
Description: as §1
Thereafter, lipid solution obtained by dissolving phosphatidylcholine (product of Sigma) in decane so that its concentration was 20 mg/mL was applied to the small hole 4 provided in the bottom 9 of the upper solution chamber 3. […] By using the thus produced current measuring device, a current was measured with time.
Subsequently, only the CaCl2 concentration of the aqueous solution with which the upper solution chamber 3 and the lower solution chamber 8 were filled was changed into 1 mM. Under this condition, a current measuring device was produced in the same manner, and a current was measured.

Row | Molecule | channel activity (current trace after addition) [1] | state of the ion channel (current trace) ([2]; CaCl2 1 mM) | state of the ion channel (current trace) ([2]; CaCl2 10^-9 M)
1 | ryanodine | activation of the ryanodine receptor channel occurs | – | –
2 | [Ca+2].[Cl-].[Cl-] [CaCl2] | – | more likely to open | closed
